# “Also recorded” adds a separate entry of the source.
# Assays:
# [1] = test system: P. aeruginosa PDO100 biofilm; assay: Biofilm dispersion by BHL in rhlI knockout; format: cell-based, Pseudomonas aeruginosa
# Procedure: This hypothesis was investigated by growing biofilms of P. aeruginosa PDOlOO and adding BHL to the influent medium at a concentration of 20 μM after 7 days growth. […] When P. aeruginosa PDOIOO was grown in the absence of BHL, medium flow was turned off after 7 days. Following cessation of flow, no dispersion of cell clusters was observed over the duration of the observation period of 96 hours.
# algD promoter = assay: Alginate promoter reporter activity (beta-galactosidase), algD; format: cell-based, P. aeruginosa strain 8830; settings: batch culture 48 hours, 10 uM OdDHL or 20 uM BHL
# Procedure: (§1) FIGS. 3a and 3b are alginate promoter studies which show the activity of the alginate promoters algC, and algD. Cultures of P. aeruginosa strain 8830 were grown for 48 hours in batch culture flasks containing EPRI medium. Test flasks were amended by either 10 uM OdDHL (PAI), 20 uM BHL (butyryl-L-homoserine lactone) or both (PAI+BHL). Following incubation, cells were harvested and promoter activity was measured as specific activity of the beta-galactosidase reporter enzyme as normalized to cell protein.
# (§2) 4. […] Alginate is a common matrix material in biofilms, and is not exclusive to P. aeruginosa. The sensitivity of P. aeruginosa to HSL activity provides a rapid assay for HSLs that is sensitive and quantitative. The responsiveness of the specific biofilm genes algC and algD to HSL activity allows assays to be performed in liquid or on semi solid medium. This provides the opportunity to perform rapid screening of test molecules for their effect on alginate production.
# algC promoter = assay: Alginate promoter reporter activity (beta-galactosidase), algC; format: cell-based, P. aeruginosa strain 8830; settings: batch culture 48 hours, 10 uM OdDHL or 20 uM BHL
# Procedure: as §1, §2
# [2] = test system: P. aeruginosa PAO1 biofilm cell clusters; assay: Effect of detergent (0.2% SDS) on biofilm dispersion, wild type; format: cell-based, Pseudomonas aeruginosa
# Procedure: SDS on wild-type P. aeruginosa PAO1. The bacteria were grown in EPRI medium in continuous culture for 10 days (a,d). Following the incubation period, 0.2% SDS was added to the reactor and flow was halted for 30 minutes (b,e). Following incubation with SDS, flow was reinitiated (c,f).
# (§3) 3. […] It has been shown previously (Davies, Doctoral Thesis, Montana State University, 1996) that matrix polymer, specifically alginate, prevents the dissolution of P.aeruginosa cell clusters treated with 0.2% SDS. However, when cell clusters are formed in the absence of alginate they are completely disrupted in under 30 minutes (FIGS. 2a, 2b, 2c and 2d). By microscopic examination of cell cluster thickness before and after treatment with SDS or by capturing effluent samples following similar treatment, a quantitative evaluation of the effect of agents capable of blocking the production of detergent resistant matrix material can be made.
# (§4) In the present experiment, treatment with the detergent was shown not to affect the biofilm in the absence of released alginate lyase.
# Following 10 days incubation, the biofilm was analyzed for cell to cell distances, cell cluster thickness and response to treatment with 0.2% SDS. […] Finally, when treated with 0.2% SDS by weight, the treated biofilm was disrupted and dispersed within 30 minutes (FIGS. 5a to 5f).
# [3] = test system: P. aeruginosa PAO1 wild-type biofilm; assay: Average cell to cell distance in biofilm, wild type; format: cell-based, Pseudomonas aeruginosa; settings: 10 uM in growing PAO1 biofilm, 10 days incubation
# Procedure: (§5) 2. Biofilm cell nearest neighbor analysis: This parameter is a measure of the average distance spacing between cells within a biofilm cell cluster or between cells at a substratum. Both measurements are influenced by the presence of the homoserine lactone OdDHL. The nearest neighbor analysis is performed by imaging 20 or more fields in a biofilm reactor and electronically determining the centroid of each cell. The relative distances from a marker cell to all other cells is computed and iterated for each cell in the population. The average nearest neighbor is then calculated. […] When OdDHL is added to the nutrient feed of the mutant defective in the production of that HSL, the average nearest neighbor increases to just over 9 um in distance.
# An analog of OdDHL, N-(2,2-difluorodecanoyl)-L-homoserine lactone was dissolved in 25% ethanol, 75% water by volume and added at a final concentration of 10 uM to growing biofilm cultures of P. aeruginosa PAO1 wild-type. Following 10 days incubation, the biofilm was analyzed for cell to cell distances, cell cluster thickness and response to treatment with 0.2% SDS. […] Finally, when treated with 0.2% SDS by weight, the treated biofilm was disrupted and dispersed within 30 minutes (FIGS. 5a to 5f).
# [4] = test system: P. aeruginosa PAO1 wild-type biofilm; assay: Biofilm cell cluster average thickness, wild type; format: cell-based, Pseudomonas aeruginosa; settings: 10 uM in growing PAO1 biofilm, 10 days incubation
# Procedure: (§6) 1. Biofilm average cell cluster depth: This parameter is a measure of the average thickness in microns of cell clusters in a biofilm. Depth measurements are performed microscopically, by measuring the maximum distance from the substratum to the apex of a biofilm cell cluster at the bulk water interface in a steady state biofilm for a minimum of 20 cell clusters. Previous measurements have shown that with P. aeruginosa, the average cell cluster depth is 102.3 um with a standard error of the mean of 20.5 um. When the gene responsible for the production of the homoserine lactone OdDHL is knocked out, the average cell cluster depth drops to only 22.8 um with a standard error of the mean of 10.0.
# Continuous culture studies. […]
# (§7) Log phase P. aeruginosa were inoculated through a septum approximately 1 cm upstream from the flow cell while flow was maintained. […] Flow through the system was then increased to remove any bacteria attached to the inside surface of the coverslip (as determined by microscopy). […]
# An analog of OdDHL, N-(2,2-difluorodecanoyl)-L-homoserine lactone was dissolved in 25% ethanol, 75% water by volume and added at a final concentration of 10 uM to growing biofilm cultures of P. aeruginosa PAO1 wild-type. Following 10 days incubation, the biofilm was analyzed for cell to cell distances, cell cluster thickness and response to treatment with 0.2% SDS. […]
# [5] = test system: P. aeruginosa PAO-JP1 biofilm; assay: Biofilm average cell cluster depth, OdDHL knockout; format: cell-based, Pseudomonas aeruginosa; settings: OdDHL added back to nutrient feed of OdDHL knockout; standard error 25.2
# Procedure: as §6
# (§8) Continuous culture studies. A continuous culture apparatus was developed to observe the growth and development of biofilms attached to a glass substratum. The apparatus was configured as a once through flow cell system. The influent defined culture medium was retained in a four liter glass reservoir. […]
# as §7
# [6] = test system: P. aeruginosa JP1 biofilm; assay: Biofilm cell nearest neighbor analysis, OdDHL knockout; format: cell-based, Pseudomonas aeruginosa; settings: OdDHL (10 uM) added to nutrient feed of OdDHL-defective mutant, at the substratum
# Procedure: as §5
# [7] = test system: P. aeruginosa PAO-JP2 biofilm; assay: Biofilm architecture recovery in double mutant (microscopy); format: cell-based, Pseudomonas aeruginosa; settings: double mutant cultured with 10 μM OdDHL in fresh medium
# From the text: The most unequivocal experimental design, to determine the role of HSL signal molecules on the formation of biofilms by cells of P. aeruginosa, was to use direct microscopic methods to monitor biofilm formation by cells of HSL negative mutants. For this reason planktonic cells of a wild-type strain (PAO1), and of three mutants incapable of synthesizing specific HSLs, were introduced into flow cells, and adhesion and biofilm formation were monitored by means of confocal scanning laser microscopy (CSLM). Using these techniques, it is possible to monitor the development of live biofilms of the strains of interest.
# as §8, with “reservoir. Medium from the influent reservoir was pumped through silicone tubing via a Masterflex pump to an aeration flask sparged with a filtered air source.” for “reservoir.”
# as §7
# [8] = test system: P. aeruginosa PAO-JP1 biofilm cell clusters; assay: Effect of detergent (0.2% SDS) on biofilm dispersion, lasI knockout; format: cell-based, Pseudomonas aeruginosa
# Procedure: FIGS. 2a, 2b, 2c, and 2d are cell cluster studies which show the effect of the addition of 0.2% SDS to a biofilm cell cluster of the lasI knockout strain P. aerguginosa PAO-JP1. The strain was grown in EPRI medium for 10 days in continuous culture reactor under flowing conditions (a). SDS was added to the culture reactor and flow was turned off for 30 min (b,c). Following incubation in the presence of SDS, flow was reinitiated (d);
# as §3, §4
# [9] = test system: P. aeruginosa PAO-JP2 biofilm cell clusters; assay: Effect of detergent (0.2% SDS) on biofilm dispersion, double mutant; format: cell-based, Pseudomonas aeruginosa
# From the text: as §4
structure (smiles),measurement,setting,value
"CCCC(=O)N[C@H]1CCOC1=O [BHL, N-butyryl-L-homoserine lactone]",effect on biofilm with medium flow on,"[1]; 20 μM BHL in influent medium after 7 days growth, 24 hours",no observable effect
same,detachment after medium flow shut off,"[1]; 20 μM BHL, flow off for 16 hours, detachment continued for three hours",significant detachment
same,algD promoter response,algD promoter,sensitive
same,algC promoter response,algC promoter,sensitive
"CCCCCCCCC(F)(F)C(=O)N[C@H]1CCOC1=O [N-(2,2-difluorodecanoyl)-L-homoserine lactone]",time to disruption and dispersion on treatment with 0.2% SDS,[2]; PAO1 biofilm grown 10 days with 10 uM blocking agent,≤ 30 min
same,cell cluster dispersion after 0.2% SDS and reinitiation of flow,"[2]; PAO1 cultured 10 days in presence of 20 uM OdDHL analog, SDS 30 minutes without flow",disperses completely
same,average cell to cell distance,[3],less than 4 um
same,cell cluster average thickness,[4],under 20 um
"CCCCCCCCCC(=O)CC(=O)N[C@H]1CCOC1=O [OdDHL, N-(3-oxododecanoyl)-L-homoserine lactone]",algD promoter response,algD promoter,sensitive
same,average cell cluster thickness,[5],100.1 um
same,average nearest neighbor distance,[6],over 9 um
same,algC promoter response,algC promoter,sensitive
same,biofilm architecture phenotype,[7],recovery of the intermediary phenotype
same,dispersion of cell clusters by 0.2% SDS,[8]; PAO-JP1 grown in the presence of 10 μM OdDHL,did not disperse bacteria in the cell clusters
"CCCCCCCCCCCCOS(=O)(=O)[O-].[Na+] [SDS, sodium dodecyl sulfate]",effect of SDS on cell cluster integrity/dispersion,"[2]; 0.2% SDS, untreated wild-type PAO1, sulfate",no effect; also recorded: no dispersion or release of bacteria
same,dispersion of cell clusters by SDS,[9],disperse completely
same,dispersion of cell clusters by SDS,"[8]; 0.2% SDS, PAO-JP1 without added HSL",disperse completely
same,time to complete disruption of cell clusters by SDS,"[8]; 0.2% SDS, cell clusters formed in the absence of alginate (FIGS. 2a-2d)",under 30 minutes
